From PubChem BioAssay AID2060499 (Molecular Pharmacology Branch, DTP, NCI, 2025)

Test system: 777334-354-R2-J4-PDC tumor spheroids with HUVEC/MSC, viability
Assay: Anticancer human tumor 777334-354-R2-J4-PDC patient-derived pancreatic adenocarcinoma cell line growth inhibition [GQUAD]
Conditions: for IC50: curve of first compound; for viability, T/C: stronger effect = lower value
Method in brief: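 Tumor cells were grown as complex spheroids with HUVEC endothelial cells and mesenchymal stem cells as stroma. G-quadruplex stabilizers were combined with targeted agents over half-log dilutions from near the clinical Cmax, or from 10 microM.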

[1] = second compound 0.0316 µM, first compound 0.000999 µM
[2] = second compound 0.0316 µM, first compound 0.00316 µM
[3] = second compound 0.0316 µM, first compound 0.00999 µM
[4] = second compound 0.0316 µM, first compound 0.0316 µM
[5] = second compound 0.0316 µM, first compound 0.0999 µM
[6] = second compound 0.0316 µM, first compound 0.316 µM
[7] = second compound 0.1 µM, first compound 0.000999 µM
[8] = second compound 0.1 µM, first compound 0.00316 µM
[9] = second compound 0.1 µM, first compound 0.00999 µM
[10] = second compound 0.1 µM, first compound 0.0316 µM
[11] = second compound 0.1 µM, first compound 0.0999 µM
[12] = second compound 0.1 µM, first compound 0.316 µM
[13] = second compound 0.316 µM, first compound 0.000999 µM
[14] = second compound 0.316 µM, first compound 0.00316 µM
[15] = second compound 0.316 µM, first compound 0.00999 µM
[16] = second compound 0.316 µM, first compound 0.0316 µM
[17] = second compound 0.316 µM, first compound 0.0999 µM
[18] = second compound 0.316 µM, first compound 0.316 µM
[19] = second compound 1 µM, first compound 0.000999 µM
[20] = second compound 1 µM, first compound 0.00316 µM
[21] = second compound 1 µM, first compound 0.00999 µM
[22] = second compound 1 µM, first compound 0.0316 µM
[23] = second compound 1 µM, first compound 0.0999 µM
[24] = second compound 1 µM, first compound 0.316 µM
[25] = second compound 3.16 µM, first compound 0.000999 µM
[26] = second compound 3.16 µM, first compound 0.00316 µM
[27] = second compound 3.16 µM, first compound 0.00999 µM
[28] = second compound 3.16 µM, first compound 0.0316 µM
[29] = second compound 3.16 µM, first compound 0.0999 µM
[30] = second compound 3.16 µM, first compound 0.316 µM
[31] = second compound 10 µM, first compound 0.000999 µM
[32] = second compound 10 µM, first compound 0.00316 µM
[33] = second compound 10 µM, first compound 0.00999 µM
[34] = second compound 10 µM, first compound 0.0316 µM
[35] = second compound 10 µM, first compound 0.0999 µM
[36] = second compound 10 µM, first compound 0.316 µM
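Note: spheroids exposed to compounds for 7 days before readout.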

CC[C@@]1(O)C(=O)OCc2c1cc1n(c2=O)Cc2cc3c(CN(C)C)c(O)ccc3nc2-1 + Cc1cnc(CNC(=O)c2c(=O)c3ccc(N4CCCN(C)CC4)nc3n3c2sc2ccccc23)cn1
IC50 (second compound 0.0316 µM): 0.172 µM
IC50 (second compound 0.1 µM): 0.241 µM
IC50 (second compound 0.316 µM): 0.222 µM
IC50 (second compound 1 µM): 0.233 µM
IC50 (second compound 3.16 µM): 0.225 µM
IC50 (second compound 10 µM): 0.0787 µM
viability, T/C [1]: 90.1%
viability, T/C [2]: 79.8%
viability, T/C [3]: 95.2%
viability, T/C [4]: 80.7%
viability, T/C [5]: 59.4%
viability, T/C [6]: 39.7%
viability, T/C [7]: 102%
viability, T/C [8]: 74.7%
viability, T/C [9]: 83.1%
viability, T/C [10]: 66.8%
viability, T/C [11]: 60.8%
viability, T/C [12]: 45%
viability, T/C [13]: 73.8%
viability, T/C [14]: 76.3%
viability, T/C [15]: 76.7%
viability, T/C [16]: 70.1%
viability, T/C [17]: 59.3%
viability, T/C [18]: 46%
viability, T/C [19]: 64.7%
viability, T/C [20]: 74.8%
viability, T/C [21]: 76%
viability, T/C [22]: 69.5%
viability, T/C [23]: 57%
viability, T/C [24]: 47%
viability, T/C [25]: 56.8%
viability, T/C [26]: 67.7%
viability, T/C [27]: 62.2%
viability, T/C [28]: 63.3%
viability, T/C [29]: 54.9%
viability, T/C [30]: 47.4%
viability, T/C [31]: 56.1%
viability, T/C [32]: 57.9%
viability, T/C [33]: 60.2%
viability, T/C [34]: 53.2%
viability, T/C [35]: 47.8%
viability, T/C [36]: 38.9%

CCc1c2c(nc3ccc(O)cc13)-c1cc3c(c(=O)n1C2)COC(=O)[C@]3(O)CC + Cc1cnc(CNC(=O)c2c(=O)c3ccc(N4CCCN(C)CC4)nc3n3c2sc2ccccc23)cn1
IC50 (second compound 0.0316 µM): 0.00438 µM
IC50 (second compound 0.1 µM): 0.00444 µM
IC50 (second compound 0.316 µM): 0.00386 µM
IC50 (second compound 1 µM): 0.00462 µM
IC50 (second compound 3.16 µM): 0.0012 µM
IC50 (second compound 10 µM): 0.00184 µM
viability, T/C [1]: 84.8%
viability, T/C [2]: 49.6%
viability, T/C [3]: 39.5%
viability, T/C [4]: 25.7%
viability, T/C [5]: 13.8%
viability, T/C [6]: 7.76%
viability, T/C [7]: 84.4%
viability, T/C [8]: 54.1%
viability, T/C [9]: 38.1%
viability, T/C [10]: 23.2%
viability, T/C [11]: 17.4%
viability, T/C [12]: 10.6%
viability, T/C [13]: 63.6%
viability, T/C [14]: 54.1%
viability, T/C [15]: 37.1%
viability, T/C [16]: 29%
viability, T/C [17]: 19.1%
viability, T/C [18]: 10.3%
viability, T/C [19]: 56%
viability, T/C [20]: 56.8%
viability, T/C [21]: 40.6%
viability, T/C [22]: 32.1%
viability, T/C [23]: 16.7%
viability, T/C [24]: 7.38%
viability, T/C [25]: 49.5%
viability, T/C [26]: 49.4%
viability, T/C [27]: 40.1%
viability, T/C [28]: 28.4%
viability, T/C [29]: 13.8%
viability, T/C [30]: 4.92%
viability, T/C [31]: 57.5%
viability, T/C [32]: 40.6%
viability, T/C [33]: 33.6%
viability, T/C [34]: 27.9%
viability, T/C [35]: 0.34%
viability, T/C [36]: 0.24%

COc1cc(C2c3cc4c(cc3C(OC3OC5COC(C)OC5C(O)C3O)C3COC(=O)C23)OCO4)cc(OC)c1O (stereo unspecified) + Cc1cnc(CNC(=O)c2c(=O)c3ccc(N4CCCN(C)CC4)nc3n3c2sc2ccccc23)cn1
IC50 (second compound 0.0316 µM): 6.18 µM
IC50 (second compound 0.1 µM): 4.44 µM
IC50 (second compound 0.316 µM): 3.71 µM
IC50 (second compound 1 µM): 5.14 µM
IC50 (second compound 3.16 µM): 2.49 µM
IC50 (second compound 10 µM): 2.91 µM
viability, T/C [4]: 94.8%
viability, T/C (second compound 0.0316 µM, first compound 0.1 µM): 90.6%
viability, T/C [6]: 85.2%
viability, T/C (second compound 0.0316 µM, first compound 1 µM): 70.9%
viability, T/C (second compound 0.0316 µM, first compound 3.16 µM): 54.7%
viability, T/C (second compound 0.0316 µM, first compound 10 µM): 46.6%
viability, T/C [10]: 84.6%
viability, T/C (second compound 0.1 µM, first compound 0.1 µM): 78.5%
viability, T/C [12]: 79.6%
viability, T/C (second compound 0.1 µM, first compound 1 µM): 73.4%
viability, T/C (second compound 0.1 µM, first compound 3.16 µM): 56.1%
viability, T/C (second compound 0.1 µM, first compound 10 µM): 34.9%
viability, T/C [16]: 79.3%
viability, T/C (second compound 0.316 µM, first compound 0.1 µM): 85%
viability, T/C [18]: 77%
viability, T/C (second compound 0.316 µM, first compound 1 µM): 72.7%
viability, T/C (second compound 0.316 µM, first compound 3.16 µM): 51.4%
viability, T/C (second compound 0.316 µM, first compound 10 µM): 39.7%
viability, T/C [22]: 68.4%
viability, T/C (second compound 1 µM, first compound 0.1 µM): 75.2%
viability, T/C [24]: 76.1%
viability, T/C (second compound 1 µM, first compound 1 µM): 64%
viability, T/C (second compound 1 µM, first compound 3.16 µM): 60%
viability, T/C (second compound 1 µM, first compound 10 µM): 37.5%
viability, T/C [28]: 57.1%
viability, T/C (second compound 3.16 µM, first compound 0.1 µM): 64.5%
viability, T/C [30]: 61.6%
viability, T/C (second compound 3.16 µM, first compound 1 µM): 61.1%
viability, T/C (second compound 3.16 µM, first compound 3.16 µM): 47.1%
viability, T/C (second compound 3.16 µM, first compound 10 µM): 40.7%
viability, T/C [34]: 58.6%
viability, T/C (second compound 10 µM, first compound 0.1 µM): 57.3%
viability, T/C [36]: 55.2%
viability, T/C (second compound 10 µM, first compound 1 µM): 52%
viability, T/C (second compound 10 µM, first compound 3.16 µM): 51.5%
viability, T/C (second compound 10 µM, first compound 10 µM): 34.7%
